Reference: patent publication US20130040882A1, “USE OF FIBROBLAST GROWTH FACTOR FRAGMENTS” (NOVARTIS AG, priority 2003, published 2013)
Several values for one entry are separate records, joined by “and”; a condition that tells them apart may be missing. Identical values can stand only once.

System: transcript levels in tissues (GH/IGF and glucagon/insulin axes, SSTR signalling)
Format: in vivo, cynomolgus monkeys
[1] = pituitary, 0.1 mg/animal/14 day, control 72
[2] = pituitary, 0.1 mg/animal/14 day, control 91
[3] = pituitary, 0.1 mg/animal/14 day, control 198
[4] = pituitary, 0.1 mg/animal/14 day, control 225

In the case of “cyclo[4-(NH2—C2H4—NH—CO—O)Pro-Phg-DTrp-Lys-Tyr(4-Bzl)-Phe] [SOM230]”, the “ATPase, H+/K+ exchanging, beta polypeptide expression ↓ (fold change)” value (liver) is reported as “polypeptide ↓ x2”, the “Adenylyl cyclase-associated protein expression ↑ (fold change)” value (liver) is reported as “↑ x1.5” and the “Arginine vasopressine receptor 2 expression ↑ (fold change)” value (liver) is reported as “receptor 2 ↑ x2.5”. For the same substance, the “B lymphoid tyrosine kinase expression ↑ (fold change)” value (liver) was “↑ x3.5”, the “BCL2-like 1 expression ↓ (fold change)” value (liver) was “↓ x3.5” and the “Bone-derived GF expression ↑ (fold change)” value (liver) was “↑ x3”. The “Bruton agammaglobulinemia a tyrosine kinase expression ↑ (fold change)” value (liver) was “↑ x1.5”, the “Butyrate response factor 2 (EGF-response factor 2) expression ↑ (fold change)” value (liver) was “x2” and the “Ca++ channel, voltage-dependent, P/Q type, alpha 1A subunit expression ↓ (fold change)” value (liver) was “subunit ↓ x2.5”. The “Calcium/calmodulin-dependent protein kinase kinase 2, β expression ↑ (fold change)” value (liver) was “↑ x3”, the “Calmodulin 2 (phosphorylase kinase, δ) expression ↑ (fold change)” value (liver) was “kinase, δ) ↑ x2” and the “Cdk 5, regulatory subunit 1 expression ↑ (fold change)” value (liver) was “subunit 1 ↑ x2.5”. The “Cdk like-2 expression ↓ (fold change)” value (liver) was “x2”, the “Cdki1A (p21/Cip1) expression ↑ (fold change)” value (liver) was “(p21/Cip1) ↑ x6” and the “Cdki 2D (p19, inhibits CDK4) expression ↓ (fold change)” value (liver) was “↓ x2.5”. For the same substance, the “Corticosteroid binding globulin precursor expression ↑ (fold change)” value (liver) was “precursor ↑ x2”, the “DAG kinase, α (80 kD) expression ↑ (fold change)” value (liver) was “(80 kD) ↑ x3” and the “DAG kinase, δ (130 kD) expression ↑ (fold change)” value (liver) was “(130 kD) ↑ x1.5”. The “Death-associated protein 6 expression ↓ (fold change)” value (liver) was “↓ x2.5”, the “Dopamine receptor D2 expression ↑ (fold change)” value (liver) was “receptor D2 ↑ x3.5” and the “Dopamine receptor D3 expression ↑ (fold change)” value (liver) was “receptor D3 ↑ x2”. For the same substance, the “EGF (β-urogastrone) expression ↓ (fold change)” value (liver) was “urogastrone) ↓ x2.5”, the “EGF-like repeats and discoidin I-like domains 3 expression ↓ (fold change)” value (liver) was “domains 3 ↓ x1.5” and the “EGFR (avian erythroblastic leukemia viral (v-erb-b) oncogene homolog) expression ↑ (fold change)” value (liver) was “homolog) ↑ x2”. The “FGFR 2 (bacteria-expressed kinase, keratinocyte growth factor receptor, craniofacial dysplasia) expression ↑ (fold change)” value (liver) was “dysplasia) ↑ x2”, the “Fas-activated serine/threonine kinase expression ↑ (fold change)” value (liver) was “kinase ↑ x1.5” and the “Fms-related tyrosine kinase 1(VEGF/vascular permeability factor receptor) expression ↓ (fold change)” value (liver) was “receptor) ↓ x1.5”. For the same substance, the “GABA (A) receptor, γ2 precursor expression ↑ (fold change)” value (liver) was “precursor ↑ x4”, the “GABA(A) receptor-associated protein expression ↑ (fold change)” value (liver) was “protein ↑ x1.5” and the “GCSF expression ↑ (fold change)” value (liver) was “GCSF ↑ x3.5”. The “GFR-bound protein 2 expression ↓ (fold change)” value (liver) was “protein 2 ↓ x2.5”, the “Gene expression (AvgDiff): GR” value (liver) was 80 and the “Gene expression (AvgDiff): IGF-2” value (liver) was 269. The “Gene expression (AvgDiff): IGFBP2” value (liver) was 4,476, the “Gene expression (AvgDiff): Insulin promoter factor 1, homeodomain transcription factor” value (liver) was 42 and the “Glucacon receptor expression ↑ (fold change)” value (liver) was “↑ x5”. For the same substance, the “Glutamate receptor, metabotropic 4 expression ↑ (fold change)” value (liver) was “↑ x1.5”, the “Glycosylphosphatidylinositol specific phospholipase D1 expression ↓ (fold change)” value (liver) was “↓ x1.5” and the “Growth differentiation factor 1 expression ↑ (fold change)” value (liver) was 1 ↑ x3. The “IFN regulatory factor 5 expression ↑ (fold change)” value (liver) was “factor 5 ↑ x2.5”, the “IFN-induced leucine zipper protein expression ↑ (fold change)” value (liver) was “protein ↑ x1.5” and the “IFN-inducible RNA-dependent protein kinase expression ↑ (fold change)” value (liver) was “protein kinase ↑ x4”. For the same substance, the “IFN-related developmental regulator 2 expression ↓ (fold change)” value (liver) was “regulator 2 ↓ x1.5”, the “IFN-stimulated protein, 15 kDa expression ↓ (fold change)” value (liver) was “protein, 15 kDa ↓ x2” and the “IFNγ responsive transcript expression ↑ (fold change)” value (liver) was “transcript ↑ x1.5”. The “IGF-2 expression ↓ (fold change)” value (liver) was “IGF-2 ↓ x2.5”, the “IGFBP2 expression ↑ (fold change)” value (liver) was “IGFBP2 ↑ x2” and the “IL2 R, γ chain, precursor expression ↑ (fold change)” value (liver) was “precursor ↑ x2.5”. The “IP 5-phosphatase expression ↑ (fold change)” value (liver) was “↑ x2”, the “Insulin promoter factor 1, homeodomain transcription factor expression ↓ (fold change)” value (liver) was “↓ x1.5” and the “Natriuretic peptide receptor A/guanylate cyclase A (atrionatriuretic peptide receptor A) expression ↑ (fold change)” value (liver) was “↑ x6”. For the same substance, the “Nck, Ash and PLC γ binding protein NAP4 expression ↑ (fold change)” value (liver) was “NAP4 ↑ x3.5”, the “PDGF, α polypeptide expression ↑ (fold change)” value (liver) was “polypeptide ↑ x1.5” and the “PDGFR, α polypeptide expression ↑ (fold change)” value (liver) was “polypeptide ↑ x2”. The “PI transfer protein expression ↑ (fold change)” value (liver) was “↑ x3.5”, the “PI transfer protein, β expression ↓ (fold change)” value (liver) was “β ↓ x1.5” and the “PKC substrate 80K-H expression ↑ (fold change)” value (liver) was 80K-H ↑ x1.5. For the same substance, the “PKC, ι expression ↓ (fold change)” value (liver) was “PKC, ι ↓ x1.5”, the “PLA2, group IIA (platelets, synovial fluid) expression ↑ (fold change)” value (liver) was “fluid) ↑ x5.5” and the “PLC, γ1 (formerly subtype 148) expression ↑ (fold change)” value (liver) was “subtype 148) ↑ x2”. The “Rb 1 (including osteosarcoma) expression ↓ (fold change)” value (liver) was “↓ x2”, the “Rb binding protein expression ↑ (fold change)” value (liver) was “↑ x2.5” and the “Rb-like 2 (p130) expression ↑ (fold change)” value (liver) was “x3”. The “Receptor (calcitonin) activity modifying protein 1 precursor expression ↑ (fold change)” value (liver) was “precursor ↑ x1.5”, the “Solute carrier family 9 (sodium/hydrogen exchanger), isoform 3 regulatory factor 1 expression ↑ (fold change)” value (liver) was “↑ x11.5” and the “Solute carrier family 11 (Na+/phosphate symporters), member 1 expression ↑ (fold change)” value (liver) was “member 1 ↑ x2.5”. For the same substance, the “TGF, β1 expression ↓ (fold change)” value (liver) was “TGF, β1 ↓ x1.5”, the “TGFβ activated kinase-binding protein 1 expression ↑ (fold change)” value (liver) was “protein 1 ↑ x2.5” and the “TGFβR III (betaglycan, 300kδ) expression ↓ (fold change)” value (liver) was “↓ x2”. For the same substance, the “THR interacting protein 15 expression ↑ (fold change)” value (liver) was “protein 15 ↑ x1.5”, the “THR sulfo transferase expression ↑ (fold change)” value (liver) was “transferase ↑ x2.5” and the “TNF (ligand) superfamily, member 10 expression ↑ (fold change)” value (liver) was “member 10 ↑ x1.5”. The “TNF-α converting enzyme expression ↓ (fold change)” value (liver) was “enzyme ↓ x2”, the “δ sleep inducing peptide, immunoreactor expression ↑ (fold change)” value (liver) was “↑ x2.5” and the “PP 1, regulatory (inhibitor) subunit 5 AvgDiff” value (pituitary, 0.1 mg/animal/14 day, control 20) was 75. For the same substance, the “SSTR3 AvgDiff” value (pituitary, 0.1 mg/animal/14 day, control 22) was 57, the “Cell division cycle 25B AvgDiff” value (pituitary, 0.1 mg/animal/14 day, control 40) was 162 and the “GLUR 2, precursor AvgDiff” value (pituitary, 0.1 mg/animal/14 day, control 42) was 59. For the same substance, the “BCL2-antagonist of cell death AvgDiff” value (pituitary, 0.1 mg/animal/14 day, control 44) was 69, the “PTP, receptor type, T AvgDiff” value (pituitary, 0.1 mg/animal/14 day, control 58) was 101 and the “Putative Ca++ transporting ATPase AvgDiff” value (pituitary, 0.1 mg/animal/14 day, control 61) was 101. The “K+ voltage-gated channel, Shab-related subfamily, member 1 AvgDiff” value (pituitary, 0.1 mg/animal/14 day, control 66) was 22, the “PI-3-kinase, catalytic, α polypeptide AvgDiff” value [1] was 21 and the “RAB 5C, member RAS oncogene family AvgDiff” value [1] was 162. The “Cdk inhibitor 2C (p18, inhibits CDK4) AvgDiff” value (pituitary, 0.1 mg/animal/14 day, control 81) was 184, the “ATPase, Na+/K+ transporting, α 2 (+) polypeptide AvgDiff” value (pituitary, 0.1 mg/animal/14 day, control 86) was 184 and the “PI-3-kinase, catalytic, δ polypeptide AvgDiff” value [2] was 34. The “S-phase response (cyclin-related) AvgDiff” value [2] was 129, the “PLC, γ 1 (formerly subtype 148) AvgDiff” value (pituitary, 0.1 mg/animal/14 day, control 111) was 40 and the “SHB adaptor protein (a Src homology 2 protein) AvgDiff” value (pituitary, 0.1 mg/animal/14 day, control 112) was 38. The “PI transfer protein, β AvgDiff” value (pituitary, 0.1 mg/animal/14 day, control 125) was 42, the “ATPase, H+/K+ exchanging, α polypeptide AvgDiff” value (pituitary, 0.1 mg/animal/14 day, control 128) was 20 and the “Phosphatase and tensin homolog (mutated in multiple advanced cancers 1) AvgDiff” value (pituitary, 0.1 mg/animal/14 day, control 129) was 36. For the same substance, the “K+ channel, subfamily K, member 3 (TASK) AvgDiff” value (pituitary, 0.1 mg/animal/14 day, control 132) was 26, the “Rab geranylgeranyltransferase, α subunit AvgDiff” value (pituitary, 0.1 mg/animal/14 day, control 164) was 104 and the “MAPKKK5 AvgDiff” value (pituitary, 0.1 mg/animal/14 day, control 171) was 278. The “Neuroblastoma-amplified protein AvgDiff” value (pituitary, 0.1 mg/animal/14 day, control 178) was 237, the “Cyclin D3 AvgDiff” value (pituitary, 0.1 mg/animal/14 day, control 187) was 338 and the “Cdk inhibitor 2D (p19, inhibits CDK4) AvgDiff” value [3] was 99. The “Cyclin F AvgDiff” value [3] was 74, the “BCL2-associated athanogene AvgDiff” value (pituitary, 0.1 mg/animal/14 day, control 216) was 318 and the “Core-binding factor, runt domain, α subunit 2; translocated to, 1; cyclin D-related AvgDiff” value [4] was 491. The “Forkhead box H1 AvgDiff” value [4] was 117, the “Rab geranygeranyltransferase, β subunit AvgDiff” value (pituitary, 0.1 mg/animal/14 day, control 230) was 284 and the “Bax gamma AvgDiff” value (pituitary, 0.1 mg/animal/14 day, control 258) was 326. For the same substance, the “ATPase, Na+/K+ transporting, β 3 polypeptide AvgDiff” value (pituitary, 0.1 mg/animal/14 day, control 292) was 610, the “IP-4-phosphatase, type 1, isoform b AvgDiff” value (pituitary, 0.1 mg/animal/14 day, control 296) was 177 and the “BCL2/adenovirus E1B 19kD-interacting protein 3 AvgDiff” value (pituitary, 0.1 mg/animal/14 day, control 342) was 458. The “Dual specificity phosphatase 8 AvgDiff” value (pituitary, 0.1 mg/animal/14 day, control 493) was 170, the “Forkhead box O3A AvgDiff” value (pituitary, 0.1 mg/animal/14 day, control 497) was 257 and the “Programmed cell death 6 AvgDiff” value (pituitary, 0.1 mg/animal/14 day, control 504) was 635. The “PKC inhibitor AvgDiff” value (pituitary, 0.1 mg/animal/14 day, control 2,351) was 3,333 and 3,332, the “ATPase, Na+/K+ transporting, β1 polypeptide expression ↑ (fold change)” value (spleen) was “polypeptide ↑ x2.5” and the “Adrenergic, α-2C-, receptor expression ↓ (fold change)” value (spleen) was “↓ x2”. For the same substance, the “Arginine vasopressine receptor 1B expression ↑ (fold change)” value (spleen) was “receptor 1B ↑ x2”, the “Bcl-2 binding component 3 expression ↑ (fold change)” value (spleen) was “↑ x2.5” and the “Ca++ channel, voltage-dependent, α2/δ subunit 1 expression ↑ (fold change)” value (spleen) was “α2/δ subunit 1 ↑ x2”. The “Ca++ channel, voltage-dependent, α2/δ subunit 2 expression ↑ (fold change)” value (spleen) was “↑ x1.5”.
